Results as given in patent US20240382483A1, “HETEROCYCLIC EGFR INHIBITORS FOR USE IN THE TREATMENT OF CANCER” (Blueprint Medicines Corporation, priority 2021, published 2024).
Like-named read-outs stand apart in the source and are kept apart here.

Key:
[1] = system: EGFR mutant NSCLC (EGFR M+); conditions: NSCLC patients; cited from earlier work
EGFR (L858R T790M C797S) = target: T1, EGFR (L858R T790M C797S) (Homo sapiens, UniProt P00533, C797S/L858R/T790M); test: Biochemical EGFR inhibition assay (Caliper mobility shift), EGFR LRTMCS; conditions: LRTMCS (PH) IC50 (nM) @ 1 mM ATP (Num), EGFR LRTMCS mutant
T1 construct: purchased SignalChem E10-122VG
T1 sequence (P00533 25-1210 T790M/C797S/L858R): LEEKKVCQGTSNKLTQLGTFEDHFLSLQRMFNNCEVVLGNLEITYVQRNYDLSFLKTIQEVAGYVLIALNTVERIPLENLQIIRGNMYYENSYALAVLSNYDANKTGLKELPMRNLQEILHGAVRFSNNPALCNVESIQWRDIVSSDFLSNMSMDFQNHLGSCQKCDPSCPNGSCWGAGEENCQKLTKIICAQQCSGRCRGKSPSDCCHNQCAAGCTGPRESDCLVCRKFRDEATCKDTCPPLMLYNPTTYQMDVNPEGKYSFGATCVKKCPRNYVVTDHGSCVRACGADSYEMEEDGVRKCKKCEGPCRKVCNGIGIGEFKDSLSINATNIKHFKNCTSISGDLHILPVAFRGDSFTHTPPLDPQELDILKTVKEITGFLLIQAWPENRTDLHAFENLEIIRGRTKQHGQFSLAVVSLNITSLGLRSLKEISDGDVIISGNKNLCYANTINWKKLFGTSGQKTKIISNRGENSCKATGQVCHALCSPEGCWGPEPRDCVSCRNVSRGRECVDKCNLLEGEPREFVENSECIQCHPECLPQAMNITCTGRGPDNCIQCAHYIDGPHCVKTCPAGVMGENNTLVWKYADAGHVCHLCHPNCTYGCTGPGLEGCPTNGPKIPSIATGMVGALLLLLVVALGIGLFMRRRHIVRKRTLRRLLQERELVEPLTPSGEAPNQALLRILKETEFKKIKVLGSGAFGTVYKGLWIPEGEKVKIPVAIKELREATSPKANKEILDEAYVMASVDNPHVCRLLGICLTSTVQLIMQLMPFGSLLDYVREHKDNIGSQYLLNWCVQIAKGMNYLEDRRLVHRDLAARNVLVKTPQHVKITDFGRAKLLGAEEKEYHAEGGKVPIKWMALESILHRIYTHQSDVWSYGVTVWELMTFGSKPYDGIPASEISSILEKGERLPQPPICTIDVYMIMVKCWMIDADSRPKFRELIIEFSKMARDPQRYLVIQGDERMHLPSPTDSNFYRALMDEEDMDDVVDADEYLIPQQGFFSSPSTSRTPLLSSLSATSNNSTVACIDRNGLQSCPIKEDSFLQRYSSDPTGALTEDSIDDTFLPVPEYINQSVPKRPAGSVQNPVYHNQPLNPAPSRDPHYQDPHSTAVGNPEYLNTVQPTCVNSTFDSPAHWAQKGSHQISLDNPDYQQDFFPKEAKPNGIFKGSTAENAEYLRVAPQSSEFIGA
How it was run: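 Each enzyme was allowed to phosphorylate 10–20% of its peptide at 25° C. before EDTA (35 mM) quench. Separated substrate and product peaks were measured by mobility shift, giving apparent IC50 values.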

[2] = target: T2, intracellular phosphorylation of EGFR in NCI-H1975 cell line that harbors the EGFR L858R T790M mutations (Homo sapiens, UniProt P00533, L858R/T790M); test: NCI-H1975 pEGFR AlphaLISA assay; assay type: cell-based; conditions: NCI-H1975 cells (EGFR L858R T790M), p-EGFR (Tyr1068), 4-5 hours incubation
T2 construct: NCI-H1975 cell line that harbors the EGFR L858R T790M mutations (ATCC, CRL-5908); host or cells: NCI-H1975
T2 sequence (P00533 25-1210 T790M/L858R): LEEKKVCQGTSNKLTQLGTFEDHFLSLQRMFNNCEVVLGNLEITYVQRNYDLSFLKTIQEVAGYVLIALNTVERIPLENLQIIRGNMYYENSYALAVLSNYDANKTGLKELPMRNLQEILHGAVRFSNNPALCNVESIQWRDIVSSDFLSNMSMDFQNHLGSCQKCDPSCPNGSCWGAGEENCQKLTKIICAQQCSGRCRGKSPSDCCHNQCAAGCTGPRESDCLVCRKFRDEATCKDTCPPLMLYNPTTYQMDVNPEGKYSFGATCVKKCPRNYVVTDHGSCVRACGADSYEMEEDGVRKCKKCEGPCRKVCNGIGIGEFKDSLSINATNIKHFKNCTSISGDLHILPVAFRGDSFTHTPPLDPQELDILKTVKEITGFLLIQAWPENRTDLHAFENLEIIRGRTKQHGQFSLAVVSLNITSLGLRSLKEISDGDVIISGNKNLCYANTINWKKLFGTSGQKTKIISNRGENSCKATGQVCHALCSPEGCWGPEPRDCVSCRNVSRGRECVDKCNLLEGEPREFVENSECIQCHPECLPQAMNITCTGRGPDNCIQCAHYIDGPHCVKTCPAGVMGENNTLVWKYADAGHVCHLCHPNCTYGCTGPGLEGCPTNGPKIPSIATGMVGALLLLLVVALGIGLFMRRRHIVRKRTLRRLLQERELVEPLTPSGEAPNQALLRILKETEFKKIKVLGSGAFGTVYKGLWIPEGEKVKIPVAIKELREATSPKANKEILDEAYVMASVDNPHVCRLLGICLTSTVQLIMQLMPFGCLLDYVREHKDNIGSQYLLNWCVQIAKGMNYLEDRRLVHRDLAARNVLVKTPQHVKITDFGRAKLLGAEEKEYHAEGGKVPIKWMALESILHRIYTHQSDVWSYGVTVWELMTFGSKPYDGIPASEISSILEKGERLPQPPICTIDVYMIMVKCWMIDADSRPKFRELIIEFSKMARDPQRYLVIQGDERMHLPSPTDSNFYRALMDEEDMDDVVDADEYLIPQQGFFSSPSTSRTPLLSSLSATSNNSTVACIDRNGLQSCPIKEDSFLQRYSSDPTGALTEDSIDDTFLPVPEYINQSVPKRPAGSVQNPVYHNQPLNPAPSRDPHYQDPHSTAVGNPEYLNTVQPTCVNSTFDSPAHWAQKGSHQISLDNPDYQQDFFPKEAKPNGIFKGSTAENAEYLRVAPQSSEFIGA
Description: On the next day, the test compounds and DMSO control were added into H1975 cell plate followed by incubation at 37C/5% CO2 for 4-5 hours. […] Then 5 μL of a donor bead mix was added to each well followed by overnight incubation at room temperature in dark. On the next day, the plate was read at a compatible plate reader to obtain pEGFR signal. Percent of pEGFR inhibition was plotted against log concentration of compounds to generate IC50 values.

[3] = read-out: Ext pEGFR H1975 GMean IC50 (nM) Protocol: @Pharmaron AlphaLISA (Num)

Row | Compound | IC50 (EGFR (L858R T790M C797S)) [nM] | IC50 [2, 3] [nM] | time of treatment until resistance [1] | IC50 ([2]; Ext pEGFR H1975 GMean IC50 (nM) Protocol: @Pharmaron AlphaLISA (Num)) [nM]
1 | C=CC(=O)Nc1cc(Nc2nccc(-c3cn(C)c4ccccc34)n2)c(OC)cc1N(C)CCN(C)C [osimertinib] | – | – | approximately 10 months | –
2 | CC(C)c1cnc(N2CC(n3ccnc3)C2)c2cnc(Nc3ccnc(N4CC[C@@H](O)[C@@](C)(F)C4)n3)cc12 [Example 219, (3S,4R)-1-(4-((8-(3-(1H-imidazol-1-yl)azetidin-1-yl)-5-isopropyl-2,7-naphthyridin-3-yl)amino)pyrimidin-2-yl)-3-fluoro-3-methylpiperidin-4-ol] | 20 to 30 | > 50 | – | –
3 | CC(C)c1cnc(N2CC(C#N)(CO)C2)c2cnc(Nc3ccnc(N4CC[C@@H](O)[C@@](C)(F)C4)n3)cc12 [Example 73, 1-(6-((2-((3S,4R)-3-fluoro-4-hydroxy-3-methylpiperidin-1-yl)pyrimidin-4-yl)amino)-4-isopropyl-2,7-naphthyridin-1-yl)-3-(hydroxymethyl)azetidine-3-carbonitrile] | 30 to 100 | > 50 | – | –
4 | COP(=O)(CC1CN(c2ncc(C(C)C)c3cc(Nc4ccnc(N5CC[C@@H](O)[C@@](C)(F)C5)n4)ncc23)C1)OC [Example 96, dimethyl ((1-(6-((2-((3S,4R)-3-fluoro-4-hydroxy-3-methylpiperidin-1-yl)pyrimidin-4-yl)amino)-4-isopropyl-2,7-naphthyridin-1-yl)azetidin-3-yl)methyl)phosphonate] | 20 to 30 | – | – | 20 to 30
5 | CC(C)c1cnc(N2CC3(CCN(C)C3=O)C2)c2cnc(Nc3ccnc(N4CC[C@@H](O)[C@@](C)(F)C4)n3)cc12 [Example 99, 2-(6-((2-((3S,4R)-3-fluoro-4-hydroxy-3-methylpiperidin-1-yl)pyrimidin-4-yl)amino)-4-isopropyl-2,7-naphthyridin-1-yl)-6-methyl-2,6-diazaspiro[3.4]octan-5-one] | 30 to 100 | 30 to 50 | – | –
6 | CC(C)c1cnc(N2Cc3cnn(C)c3C2)c2cnc(Nc3ccnc(N4CC[C@@H](O)[C@@](C)(F)C4)n3)cc12 [Example 90, (3S,4R)-3-fluoro-1-(4-((5-isopropyl-8-(1-methyl-4,6-dihydropyrrolo[3,4-c]pyrazol-5(1H)-yl)-2,7-naphthyridin-3-yl)amino)pyrimidin-2-yl)-3-methylpiperidin-4-ol] | < 15 | 30 to 50 | – | –
7 | CC(C)c1cnc(N2CC[C@@]23CCN(C)C3)c2cnc(Nc3ccnc(N4CC[C@@H](O)[C@@](C)(F)C4)n3)cc12 (single isomer, unassigned) [Example 199, (3S,4R)-3-fluoro-1-(4-((5-isopropyl-8-((R)-6-methyl-1,6-diazaspiro[3.4]octan-1-yl)-2,7-naphthyridin-3-yl)amino)pyrimidin-2-yl)-3-methylpiperidin-4-ol or (3S,4R)-3-fluoro-1-(4-((5-isopropyl-8-((S)-6-methyl-1,6-diazaspiro[3.4]octan-1-yl)-2,7-naphthyridin-3-yl)amino)pyrimidin-2-yl)-3-methylpiperidin-4-ol] | < 15 | 20 to 30 | – | –
8 | CC(C)c1ccc(N2CCC2)c2cnc(Nc3ccnc(N4CC[C@@H](O)[C@@](C)(F)C4)n3)cc12 [Example 110, (3S,4R)-1-(4-((8-(azetidin-1-yl)-5-isopropylisoquinolin-3-yl)amino)pyrimidin-2-yl)-3-fluoro-3-methylpiperidin-4-ol] | 30 to 100 | > 50 | – | –

Now from value to molecule, other results behind:

Row | IC50 (EGFR (L858R T790M C797S)) [nM] | IC50 [2, 3] [nM] | Compound | time of treatment until resistance [1] | IC50 ([2]; Ext pEGFR H1975 GMean IC50 (nM) Protocol: @Pharmaron AlphaLISA (Num)) [nM]
9 | < 15 | < 10 | CNCCO[C@H]1CCN(c2nccc(Nc3cc4c(C(C)C)cnc(N5CC[C@H]5C)c4cn3)n2)C[C@H]1F [Example 200, N-(2-((3R,4S)-3-fluoro-4-(2-(methylamino)ethoxy)piperidin-1-yl)pyrimidin-4-yl)-5-isopropyl-8-((R)-2-methylazetidin-1-yl)-2,7-naphthyridin-3-amine] | – | –
10 | < 15 | < 10 | [2H]C([2H])([2H])O[C@H]1CCN(c2nccc(Nc3cc4c(C(C)C)cnc(N5C[C@H](OCCO)[C@H]5C)c4cn3)n2)C[C@H]1F [Example 137, 2-(((2R,3S)-1-(6-((2-((3R,4S)-3-fluoro-4-(methoxy-d3)piperidin-1-yl)pyrimidin-4-yl)amino)-4-isopropyl-2,7-naphthyridin-1-yl)-2-methylazetidin-3-yl)oxy)ethan-1-ol] | – | –
11 | < 15 | < 10 | CC(C)c1ccc([C@H]2C[C@H](CS(C)(=O)=O)C2)c2cnc(Nc3ccnc(N4CC[C@@H](O)[C@@](C)(F)C4)n3)cc12 [Example 1, (3S,4R)-3-fluoro-1-(4-((5-isopropyl-8-((1r,3S)-3-((methylsulfonyl)methyl)cyclobutyl)isoquinolin-3-yl)amino)pyrimidin-2-yl)-3-methylpiperidin-4-ol] | – | –
12 | < 15 | 30 to 50 | CC(C)c1cnc(N2C[C@H](O)[C@H]2C)c2cnc(Nc3ccnc(N4CC[C@@](C)(O)[C@@H](F)C4)n3)cc12 (single isomer, unassigned) [Example 173, (3S,4R)-3-fluoro-1-(4-((8-((2R,3S)-3-hydroxy-2-methylazetidin-1-yl)-5-isopropyl-2,7-naphthyridin-3-yl)amino)pyrimidin-2-yl)-4-methylpiperidin-4-ol or (3R,4S)-3-fluoro-1-(4-((8-((2R,3S)-3-hydroxy-2-methylazetidin-1-yl)-5-isopropyl-2,7-naphthyridin-3-yl)amino)pyrimidin-2-yl)-4-methylpiperidin-4-ol] | – | –
13 | < 15 | 20 to 30 | CC(C)c1cnc(N2C[C@H](O)[C@H]2C)c2cnc(Nc3ccnc(N4C[C@@H](F)[C@@H](O)C(C)(C)C4)n3)cc12 (single isomer, unassigned) [Example 145, (4S,5R)-5-fluoro-1-(4-((8-((2R,3S)-3-hydroxy-2-methylazetidin-1-yl)-5-isopropyl-2,7-naphthyridin-3-yl)amino)pyrimidin-2-yl)-3,3-dimethylpiperidin-4-ol or (4R,5S)-5-fluoro-1-(4-((8-((2R,3S)-3-hydroxy-2-methylazetidin-1-yl)-5-isopropyl-2,7-naphthyridin-3-yl)amino)pyrimidin-2-yl)-3,3-dimethylpiperidin-4-ol] | – | –
